This note sets out measurements from US8552176B2 (priority 2010, dated 2013).

Common to all, as to experiment: cells
What all share (type): cell-based, human

Experiment [1] concerns SKOV3. To be noted: read-out: GI50 SKOV3 ovary.
Experiment [2] has as its system DU-145. To be noted: read-out: GI50 DU-145 prostate.
The test system of experiment [3] is MCF7. The conditions noted are these: read-out: GI50 MCF7 breast.
Experiment [4] has as its system Hep3b. To be noted: read-out: GI50 Hep3b liver.
For experiment [5], the system named is HT29. To be noted: read-out: GI50 HT29 colorectal.
The test system of experiment [6] is H1299. The conditions noted are these: read-out: GI50 H1299 lung (−p53).
Experiment [7] has as its system A549. The conditions noted are these: read-out: GI50 A549 lung (+p53).
The test system of experiment [8] is NCI-H460. The conditions noted are these: read-out: GI50 NCI-H460 lung.
For experiment [9], the system named is SF-268. The conditions noted are these: read-out: GI50 SF-268 CNS.
Experiment [10] relates to HCT-15. The conditions noted are these: read-out: GI50 HCT-15 colorectal.

For orientation: GI50 means the concentration that inhibits growth by half. `CON(CCCCc1ccc(N(CCCl)CCCl)cc1)C1OC(CO)C(O)C(O)C1O` (mixture of isomers) [Compound 40]: the GI50 in experiment [1] amounted to 2.5 ± 0.1 µM; in [2], 4.8 ± 0.1 µM; in experiment [3] it was 3.2 ± 0.3 µM; in experiment [4] it was 3.9 ± 0.2 µM; in [5] it was 2.9 ± 0.1 µM; in experiment [6] it was 0.55 ± 0.05 µM. Moreover, the GI50 in experiment [7] turned out to be 3.3 ± 0.2 µM; in experiment [8], 8 ± 0.7 µM; in experiment [9] it was 2 ± 0.1 µM; in [10], 0.88 ± 0.07 µM.

On to `CON(CCCCc1ccc(N(CCCl)CCCl)cc1)C1OCC(O)C(O)C1O` (mixture of isomers) [Compound 41], for which the GI50 in [1] was 1.8 ± 0.1 µM; in [2], 3.6 ± 0.1 µM; in experiment [3] it was 1 ± 0.2 µM; in [4], 2.5 ± 0.1 µM; in experiment [5], 2 ± 0.1 µM; in [6], 0.76 ± 0.05 µM. The GI50 amounted to 2.3 ± 0.1 µM in experiment [7], 5.2 ± 0.4 µM in [8], 1.6 ± 0.1 µM in experiment [9] and 0.79 ± 0.05 µM in experiment [10].

As to `CON(CCCCc1ccc(N(CCCl)CCCl)cc1)C1OCC(O)C(O)C1O` (mixture of isomers) [Compound 42], the GI50 in [1] was found to be 1.8 ± 0.1 µM; in [2], 3.9 ± 0.1 µM; in experiment [3], 0.94 ± 0.2 µM; in experiment [4], 3 ± 0.1 µM; in experiment [5], 2.4 ± 0.1 µM; in [6], 0.88 ± 0.04 µM. Moreover, the GI50 is 2.2 ± 0.1 µM in experiment [7], 5.8 ± 0.1 µM in experiment [8], 1.2 ± 0.1 µM in experiment [9] and 0.95 ± 0.08 µM in [10].

For `CON(CCCCc1ccc(N(CCCl)CCCl)cc1)C1OC(CO)C(O)C(O)C1O` (mixture of isomers) [Compound 43], the GI50 in experiment [1] is 2.3 ± 0.1 µM; in experiment [2], 5.1 ± 0.2 µM; in [3], 1.9 ± 0.1 µM; in experiment [4], 3.2 ± 0.2 µM; in [5], 2.6 ± 0.2 µM; in [6] it was 1.01 ± 0.07 µM. Further, the concentration for 50% growth inhibition (GI50) amounted to 3.5 ± 0.2 µM in experiment [7], 7.8 ± 0.7 µM in experiment [8], 1.8 ± 0.1 µM in [9] and 1.9 ± 0.2 µM in [10].

In the case of `CON(CCCCc1ccc(N(CCCl)CCCl)cc1)C1OC(CO)C(O)C(O)C1O` (mixture of isomers) [Compound 44], the GI50 in [1] amounted to 2.9 ± 0.1 µM; in [2], 4.9 ± 0.1 µM; in experiment [3] it was 2.2 ± 0.2 µM; in experiment [4], 3.7 ± 0.2 µM; in [5] it was 3.4 ± 0.2 µM; in experiment [6], 1.2 ± 0.1 µM. Moreover, the GI50 amounted to 4.1 ± 0.2 µM in [7], 9.8 ± 0.9 µM in [8], 2 ± 0.1 µM in experiment [9] and 2.2 ± 0.1 µM in experiment [10].

Regarding `CON(CCCCc1ccc(N(CCCl)CCCl)cc1)C1OC(CO)C(O)C(O)C1NC(C)=O` (mixture of isomers) [Compound 45], the GI50 in [1] is 10.1 ± 0.9 µM; in [2], 16 ± 1 µM; in experiment [3] it was 9 ± 1 µM; in [4] it was 9.8 ± 0.7 µM; in experiment [5], 8.7 ± 0.7 µM; in [6] it was 2.7 ± 0.2 µM. Moreover, the GI50 is 21 ± 2 µM in experiment [7], 33.3 ± 0.5 µM in [8], 3.4 ± 0.2 µM in [9] and 22 ± 2 µM in [10].

For `CON(CCCCc1ccc(N(CCCl)CCCl)cc1)C1OC(C)C(O)C(O)C1O` (mixture of isomers) [Compound 51], the GI50 was determined as 2 ± 0.1 µM in [1]; 4.2 ± 0.1 µM in experiment [2]; 2.2 ± 0.2 µM in experiment [3]; 2.6 ± 0.1 µM in experiment [4]; 2.4 ± 0.1 µM in experiment [5]; 3.7 ± 0.3 µM in experiment [6]. Also, the GI50 in experiment [7] was found to be 2.5 ± 0.1 µM; in experiment [8] it was 5.3 ± 0.4 µM; in experiment [9], 1.9 ± 0.1 µM; in experiment [10] it was 2 ± 0.1 µM.

Take `CON(CCCCc1ccc(N(CCCl)CCCl)cc1)C1CC(O)C(O)CO1` (mixture of isomers) [Compound 55]: the GI50 in experiment [1] is 2 ± 0.1 µM; in [2] it was 4 ± 0.1 µM; in [3], 0.96 ± 0.02 µM; in [4], 2.6 ± 0.1 µM; in experiment [5], 2.6 ± 0.1 µM; in [6] it was 3.7 ± 0.2 µM. Moreover, the GI50 in experiment [7] was 2.6 ± 0.2 µM; in experiment [8], 5.8 ± 0.6 µM; in [9], 2.1 ± 0.1 µM; in experiment [10] it was 2.3 ± 0.1 µM.

For `CON(CCCCc1ccc(N(CCCl)CCCl)cc1)C1CC(O)C(O)CO1` (mixture of isomers) [Compound 56], the GI50 in experiment [1] was 2.2 ± 0.1 µM; in [2] it was 3.3 ± 0.1 µM; in experiment [3] it was 1.3 ± 0.2 µM; in experiment [4], 2.5 ± 0.1 µM; in experiment [5], 2.3 ± 0.1 µM; in [6] it was 3.9 ± 0.5 µM. Besides, the GI50 in [7] turned out to be 2.5 ± 0.1 µM; in [8], 5.2 ± 0.6 µM; in [9], 2 ± 0.1 µM; in experiment [10], 2.2 ± 0.1 µM.

For `CC(=O)OC1COC(N(CCCCc2ccc(N(CCCl)CCCl)cc2)OC(C)=O)C(OC(C)=O)C1OC(C)=O` (mixture of isomers) [Compound 69, N-Acetoxy-4-(4-N′,N′-bis(2-chloroethyl)amino)phenylbutylamino-D-riboside peracetate], the GI50 in experiment [1] is 0.53 ± 0.01 µM; in experiment [2], > 5 µM; in [3], 4.6 ± 0.3 µM; in [4], > 5 µM; in experiment [5], 0.96 ± 0.07 µM; in [6] it was 1.05 ± 0.05 µM. For the same compound, the GI50 in experiment [7] came out at 1.12 ± 0.07 µM; in experiment [8], 1.3 ± 0.1 µM; in [9], 1.6 ± 0.1 µM; in [10], 1.1 ± 0.1 µM.

Consider `O=C(CCCc1ccc(N(CCCl)CCCl)cc1)NN=CC(O)C(O)CO` (mixture of isomers) [Compound 74, 4-(4-N′,N′-bis(2-chloroethyl)amino)phenylbutylhydrazido-D-threoside inline], for which the GI50 in experiment [1] was found to be 6.2 ± 0.6 µM; in experiment [2], 9.5 ± 0.7 µM; in experiment [3], 4.2 ± 0.2 µM; in [4], 4.1 ± 0.4 µM; in [5], 4.8 ± 0.1 µM; in [6] it was 2.6 ± 0.2 µM. Moreover, the GI50 stood at 7.5 ± 0.5 µM in [7], 10.8 ± 0.8 µM in [8], 2.6 ± 0.2 µM in experiment [9] and 7.3 ± 0.4 µM in experiment [10].

`CON(CCCCc1ccc(N(CCCl)CCCl)cc1)C1OC(COCc2ccccc2)C(OCc2ccccc2)C1OCc1ccccc1` (stereo not drawn) [Compound 16]: the GI50 in experiment [1] is > 100 µM; in experiment [2], > 100 µM; in experiment [3], 82 ± 1 µM; in [4], > 100 µM; in experiment [5] it was 47 ± 1 µM; in experiment [6], > 100 µM. The GI50 was > 100 µM in experiment [7], > 100 µM in [8], 80 ± 5 µM in experiment [9] and 64 ± 8 µM in [10].

Turning to `CON(CCCCc1ccc(N(CCCl)CCCl)cc1)C1OCC(O)C1O` (stereo not drawn) [Compound 19], the GI50 in [1] was 2.6 ± 0.9 µM; in experiment [2], 5 ± 0.7 µM; in experiment [3], 8 ± 0.1 µM; in experiment [4], 4.1 ± 0.9 µM; in experiment [5], 1.6 ± 0.1 µM; in experiment [6], 1.1 ± 0.1 µM. In addition, the GI50 in [7] was found to be 3.1 ± 0.8 µM; in experiment [8] it was 7.8 ± 0.9 µM; in experiment [9] it was 2.4 ± 0.8 µM; in [10], 0.77 ± 0.09 µM.

On to `CON(CCCCc1ccc(N(CCCl)CCCl)cc1)C1OC(CO)C(O)C(O)C1O` (stereo not drawn) [Compound 28], for which the GI50 is 3 ± 0.1 µM in [1]; 5.5 ± 0.2 µM in experiment [2]; 1.5 ± 0.1 µM in experiment [3]; 3.4 ± 0.1 µM in [4]; 2.9 ± 0.4 µM in experiment [5]; 1.4 ± 0.1 µM in experiment [6]. The GI50 in [7] was found to be 4.5 ± 0.2 µM; in experiment [8], 12.3 ± 0.7 µM; in experiment [9], 1.8 ± 0.1 µM; in experiment [10], 2.8 ± 0.2 µM.

For `CON(CCCCc1ccc(N(CCCl)CCCl)cc1)C1OC(CO)C(O)C(O)C1O` (stereo not drawn) [Compound 29], the GI50 in experiment [1] turned out to be 4.5 ± 0.6 µM; in experiment [2], 7 ± 0.5 µM; in experiment [3], 1.8 ± 0.2 µM; in [4], 5 ± 0.6 µM; in [5], 4.6 ± 0.4 µM; in [6], 1.6 ± 0.1 µM. Moreover, the GI50 was determined as 6.8 ± 0.8 µM in experiment [7], 14.3 ± 0.9 µM in experiment [8], 2.2 ± 0.1 µM in experiment [9] and 2.8 ± 0.2 µM in experiment [10].

Regarding `CON(CCCCc1ccc(N(CCCl)CCCl)cc1)C1CC(O)C(O)C(CO)O1` (stereo not drawn) [Compound 30], the GI50 amounted to 1.12 ± 0.1 µM in [1]; 4.3 ± 0.3 µM in experiment [2]; 5.4 ± 0.1 µM in experiment [3]; 3.7 ± 0.3 µM in [4]; 1.2 ± 0.2 µM in experiment [5]; 0.58 ± 0.06 µM in experiment [6]. Further, the GI50 in experiment [7] was 3.1 ± 0.5 µM; in [8] it was 5.4 ± 0.6 µM; in experiment [9], 2.5 ± 0.5 µM; in experiment [10], 0.7 ± 0.05 µM.

Consider `CON(CCCCc1ccc(N(CCCl)CCCl)cc1)C1OC(CO)C(O)C(O)C1F` (stereo not drawn) [Compound 31], for which the 50% growth inhibitory concentration (GI50) was 2 ± 0.1 µM in experiment [1]; 4.2 ± 0.1 µM in experiment [2]; 7.3 ± 0.1 µM in experiment [3]; 3.2 ± 0.1 µM in experiment [4]; 2.4 ± 0.2 µM in experiment [5]; 1.2 ± 0.1 µM in [6]. For the same compound, the GI50 is 2.6 ± 0.1 µM in experiment [7], 6.4 ± 0.07 µM in [8], 2.2 ± 0.1 µM in [9] and 1.08 ± 0.04 µM in experiment [10].

On to `CON(CCCCc1ccc(N(CCCl)CCCl)cc1)C1OC(CO)C(O)C(F)C1O` (stereo not drawn) [Compound 32], for which the GI50 in experiment [1] amounted to 2.2 ± 0.1 µM; in [2], 4.1 ± 0.1 µM; in experiment [3] it was 7 ± 0.8 µM; in experiment [4] it was 3.2 ± 0.1 µM; in [5], 2.6 ± 0.2 µM; in experiment [6], 1.3 ± 0.1 µM. The GI50 in experiment [7] was found to be 3 ± 0.1 µM; in [8], 7.1 ± 0.9 µM; in [9], 2.2 ± 0.1 µM; in [10], 1.2 ± 0.1 µM.
